Measured values from US20200222372A1 (Ovid Therapeutics Inc., priority 2017, published 2020).

Experiments:
onset of REM sleep = experiment: Delay of onset of REM sleep after falling asleep in narcoleptic patient; type: in vivo, human (narcoleptic patient); details: 0.5 mg to 25 mg gaboxadol or salt
Protocol: As mentioned above, people with narcolepsy frequently abnormally enter REM sleep within 15 minutes of falling asleep. […] Without wishing to be bound by any theory, symptoms associated with narcolepsy such as cataplexy, sleep paralysis, hallucinations, and automatic behaviors closely mimic the natural physiologic response that occurs during REM sleep. By inducing a more normal REM sleep architecture in narcoleptic patients, symptoms associated with narcolepsy are reduced or alleviated. […] In embodiments, the delay of onset of REM sleep is about 30 minutes or longer. In embodiments, the delay of onset of REM sleep is about 45 minutes or longer. In embodiments, the delay of onset of REM sleep is about 60 minutes or longer. In embodiments, the delay of onset of REM sleep is about 75 minutes or longer.

[1] = human, in vivo

For `Oc1noc2c1CCNC2` [gaboxadol, 4,5,6,7-tetrahydroisoxazolo [5,4-c] pyridine-3-ol], the “onset of REM sleep after falling asleep” value (onset of REM sleep) was at least 30 min and the “CL for 10 mg IV (in CL/F row)” value [1] was 438 mL/min.
